Reference: ChEMBL document CHEMBL1201862, “PubChem BioAssay data set” (2004)
Activity calls are given as the source filed them.

Legend:
[1] = NIH-3T3 fibroblast cytotoxicity, dose response, cytotoxicity control, cell-based, fluorescence, Alamar Blue, secondary assay (AID 2327); type: functional;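 further: NIH-3T3 mouse fibroblasts cultured with fluconazole at 8 µg/mL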
[2] = fluconazole-exposed Candida albicans growth modulators – fluorescence, retest, confirmation (AID 2467); type: functional, cell-based
[3] = target: Heat shock protein HSP 90-alpha (Homo sapiens, UniProt P07900); type: functional, organism-based
INS1 = experiment: INS-1E survival protection against cytokine death – cell-based, luminescence, retest, dose response (AID 449756); type: functional; conditions: Rattus norvegicus;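 further: cell death triggered by IL-1 beta plus TNF-alpha plus IFN-gamma mixture; protective hits raise ATP signal compared with cytokine alone wells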
[4] = target: T1, Replicative DNA helicase DnaB (Mycobacterium tuberculosis, UniProt P9WMR3); experiment: DnaB intein splicing inhibitors, dose response, biochemical, cell-free fluorescence (AID 449749); type: functional
T1 sequence (P9WMR3 whole entry): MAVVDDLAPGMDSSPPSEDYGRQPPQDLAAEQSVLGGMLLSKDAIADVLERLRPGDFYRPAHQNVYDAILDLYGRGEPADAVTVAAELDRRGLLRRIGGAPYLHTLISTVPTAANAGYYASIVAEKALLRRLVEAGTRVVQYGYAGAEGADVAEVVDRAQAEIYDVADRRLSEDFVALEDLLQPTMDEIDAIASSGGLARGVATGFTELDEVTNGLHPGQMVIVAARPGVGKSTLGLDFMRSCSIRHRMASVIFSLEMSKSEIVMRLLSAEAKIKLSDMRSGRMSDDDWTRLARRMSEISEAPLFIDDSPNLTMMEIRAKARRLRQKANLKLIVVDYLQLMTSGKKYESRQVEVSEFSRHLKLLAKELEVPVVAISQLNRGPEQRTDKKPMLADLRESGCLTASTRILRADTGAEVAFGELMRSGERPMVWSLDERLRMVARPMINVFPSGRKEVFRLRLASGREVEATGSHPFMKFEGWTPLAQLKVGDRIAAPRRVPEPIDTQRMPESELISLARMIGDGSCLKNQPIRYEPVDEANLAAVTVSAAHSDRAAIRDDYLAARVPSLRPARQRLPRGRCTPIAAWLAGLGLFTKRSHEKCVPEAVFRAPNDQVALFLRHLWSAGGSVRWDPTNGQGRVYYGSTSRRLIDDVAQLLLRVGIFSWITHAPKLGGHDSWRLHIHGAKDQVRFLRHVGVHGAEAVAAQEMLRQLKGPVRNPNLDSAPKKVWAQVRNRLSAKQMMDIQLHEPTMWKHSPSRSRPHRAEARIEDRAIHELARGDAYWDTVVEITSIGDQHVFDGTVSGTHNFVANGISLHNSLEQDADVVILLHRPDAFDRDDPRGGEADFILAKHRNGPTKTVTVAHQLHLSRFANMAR

[5] = target: T2, Apoptotic protease-activating factor 1 (Homo sapiens, UniProt O14727); type: functional
T2 sequence (O14727 whole entry): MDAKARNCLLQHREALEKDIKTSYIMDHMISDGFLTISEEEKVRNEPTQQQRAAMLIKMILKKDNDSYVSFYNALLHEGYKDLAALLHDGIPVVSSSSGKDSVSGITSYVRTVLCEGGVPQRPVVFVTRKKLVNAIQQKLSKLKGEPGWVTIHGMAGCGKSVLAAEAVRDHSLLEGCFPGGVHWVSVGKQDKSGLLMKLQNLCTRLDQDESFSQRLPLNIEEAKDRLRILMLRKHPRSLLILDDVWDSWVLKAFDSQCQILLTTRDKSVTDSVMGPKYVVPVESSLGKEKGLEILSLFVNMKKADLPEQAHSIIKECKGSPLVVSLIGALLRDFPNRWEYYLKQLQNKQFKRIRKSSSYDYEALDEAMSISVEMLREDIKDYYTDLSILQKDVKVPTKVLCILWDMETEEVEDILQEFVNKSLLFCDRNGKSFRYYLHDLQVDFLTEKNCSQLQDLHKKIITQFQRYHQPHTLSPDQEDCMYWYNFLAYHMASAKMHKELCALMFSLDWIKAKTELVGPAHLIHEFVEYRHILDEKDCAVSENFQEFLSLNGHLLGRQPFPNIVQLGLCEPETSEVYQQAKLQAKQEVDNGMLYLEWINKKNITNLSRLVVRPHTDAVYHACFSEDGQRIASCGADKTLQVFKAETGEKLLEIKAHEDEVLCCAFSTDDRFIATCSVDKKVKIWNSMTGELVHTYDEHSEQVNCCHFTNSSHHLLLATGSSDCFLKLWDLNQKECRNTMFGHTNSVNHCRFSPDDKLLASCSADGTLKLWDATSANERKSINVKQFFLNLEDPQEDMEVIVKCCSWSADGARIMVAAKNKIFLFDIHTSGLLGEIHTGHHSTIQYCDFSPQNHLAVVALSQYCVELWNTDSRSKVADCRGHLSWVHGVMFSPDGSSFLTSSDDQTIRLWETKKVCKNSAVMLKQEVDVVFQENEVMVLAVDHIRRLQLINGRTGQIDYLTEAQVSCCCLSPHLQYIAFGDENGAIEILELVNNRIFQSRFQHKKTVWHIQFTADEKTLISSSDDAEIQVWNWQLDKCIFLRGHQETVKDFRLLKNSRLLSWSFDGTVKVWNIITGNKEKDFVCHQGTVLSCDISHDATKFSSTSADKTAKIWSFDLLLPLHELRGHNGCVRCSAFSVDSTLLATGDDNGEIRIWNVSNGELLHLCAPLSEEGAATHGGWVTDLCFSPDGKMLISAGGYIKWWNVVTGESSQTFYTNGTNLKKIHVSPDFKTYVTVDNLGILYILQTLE

CC(C)CC(=O)NC(c1cccs1)c1ccc2cccnc2c1O (stereo not given)
EC50 [1]: 24.3 µM (active)
EC50 [2]: 0.58 µM (active)
AC50 [3]: 3.78 µM (active)
AC50 (INS1): 0.862 µM (active)

CCOC(=O)c1ccc(NC2=CC(=O)C(=O)c3ccccc32)cc1
AC50 [4]: > 380 µM (inactive)
IC50 [5]: 4.73 µM (active)

OC(CNCCC1C=Nc2ccccc21)Cn1c2ccc(Cl)cc2c2cc(Cl)ccc21 (stereo not given)
EC50 [1]: 14.3 µM (inconclusive)
EC50 [2]: > 38 µM (not active)
AC50 [4]: 6.51 µM (active)
AC50 [3]: 8.15 µM (active)
AC50 (INS1): 7.32 µM (active)

CCCCCCCCCCCCCCCC[N+](C)(C)C
EC50 [1]: > 150 µM (inconclusive)
EC50 [2]: > 38 µM (not active)
AC50 [4]: 4.78 µM (active)
AC50 [3]: 8.33 µM (active)
IC50 [5]: 27.5 µM (active)
AC50 (INS1): 4.84 µM (active)

COc1ccc(C(=O)c2nccc3cc(OC)c(OC)cc23)cc1OC
IC50 [5]: 24.4 µM (active)

Cc1ccccc1-c1cc2c(nn1)-c1ccccc1C2=O
AC50 [4]: 6.85 µM (active)
IC50 [5]: 25.5 µM (active)
